Series [1] concerns Adenovirus type 165089/Chicago (A-549 cells). Particulars: human.
A short description of series [2]: in vitro. Particulars: African green monkey.
In series [3] the test system is Rhinovirus 2 HGP (HeLa Ohio-1 cells). As to the kind of experiment: microbe, parasite or virus in culture. Particulars: Enterovirus, HeLa Ohio1.
For series [4], the system named is SARS-CoV Urbani (Vero 76 cells). The note with it: African green monkey.
Series [5] deals with H3N2 virus (A/Victoria/3/75). Further details: species or system BALB/c mice. Particulars: mouse, in vivo.
Series [6] concerns Yellow Fever 17D (Vero 76 cells). As to the kind of experiment: microbe, parasite or virus in culture.
Series [7] has as its system Punta Toro A2 (Vero 76 cells). As to the kind of experiment: microbe, parasite or virus in culture.
Series [8] can be described thus: in vitro. Particulars: African green monkey. This is another data set of the same source.
Series [9] relates to H3N2 virus (A/Victoria/3/75). Also noted: species or system BALB/c mice. The note with it: mouse, in vivo. The source holds these as a separate data set.
In series [10] the test system is Rhinovirus 2 HGP (HeLa Ohio-1 cells). The note with it: human.
For series [11] the test system is unchanged. As to the kind of experiment: microbe, parasite or virus in culture. Particulars: Enterovirus, HeLa Ohio1. The source holds these as a separate data set.
Series [12] concerns Respiratory Syncytial A2 (MA-104 cells). The series is described as follows: microbe, parasite or virus in culture. Particulars: human respiratory syncytial virus, MA104.
For series [13], the system named is A/Vic/3/75 (H3N2). As to the kind of experiment: microbe, parasite or virus in culture. It counts as cell-based. Particulars: Influenza A virus.
For series [14], the system named is Punta Toro A2 (Vero 76 cells). As to the kind of experiment: microbe, parasite or virus in culture. The source holds these as a separate data set.
In series [15] the test system is Influenza B Florida.
The test system of series [16] is Influenza A H1N1 CA/04/2009 (Pandemic HIN1).
Series [17] shares this test system. The source holds these as a separate data set.
For series [18] the following is noted: rat, in vivo, po; for AUC(0-inf) / Cmax / Tmax: male, Sprague-Dawley.
In series [19] the test system is Yellow Fever 17D (Vero 76 cells). As to the kind of experiment: microbe, parasite or virus in culture. The source holds these as a separate data set.
Series [20] deals with West Nile (Vero Cells). Particulars: African green monkey.
Series [21] relates to Adenovirus type 165089/Chicago (A-549 cells). The note with it: human. The source holds these as a separate data set.
Series [22] has as its system Yellow fever virus (Jimenez strain). It counts as in vivo, Syrian golden hamsters. Particulars: 100 mg/kg.
The test system of series [23] is Respiratory Syncytial A2 (MA-104 cells). The series is described as follows: microbe, parasite or virus in culture. The note with it: human respiratory syncytial virus, MA104. The source holds these as a separate data set.

Values joined by “and” are separate entries in the source; they are usually repeats but may differ in a detail not shown here. Equal entries are not always repeated. Structures can show the parent of a compound that is named as a salt. Where two headings read alike, the source gives them in different places. Marks after values point to notes of the source that are not given here.

Two compounds from patent US9580428B2, “Compositions and methods for inhibiting viral polymerase” (priority 2012, dated 2017) can be followed below.

A word on the IC50: it is the concentration that inhibits the measured activity by half. As usually defined, the EC50 is the concentration that produces a half-maximal response. As a reminder, the Cmax is the highest concentration seen after dosing. Broadly, the Tmax is the time at which the peak concentration occurs. For the compound `Cl.Cl.Nc1ncnc2c([C@@H]3N[C@H](CO)[C@@H](O)[C@H]3O)c[nH]c12` [compound 12i, (2S,3S,4R,5R)-2-(4-amino-5H-pyrrolo[3,2-d]pyrimidin-7-yl)-5-(hydroxymethyl)pyrrolidine-3,4-diol dihydrochloride], the “IC50 (50% cytotoxic dose)” value was >0.1 µg/mL in [1]; >0.1 µg/mL in series [4]; >0.1 µg/mL in series [10]; 0.21 µg/mL in series [16]; 0.21 µg/mL in series [17]; >0.1 µg/mL in series [20]. Moreover, in series [21], the “IC50 (50% cytotoxic dose)” value is >0.1 µg/mL. For the same compound, the IC50 in series [2] and in series [8] was > 100 µg/mL throughout. In addition, the EC50 in [3] was 57 µg/mL; in [6] it was 8.3 µg/mL; in series [7], 310 µg/mL; in series [11], 56 µg/mL; in [12], > 100 µg/mL; in series [13] it was 4 µg/mL. Moreover, the EC50 is > 250 µg/mL in [14], 1.8 µg/mL in series [15], 8.3 µg/mL in series [19] and > 100 µg/mL in series [23]. Besides, the Survival/Total in [5] and in series [5] (po) was 10/10* throughout. The “Mean day to death (Mean ± SEM)” value in series [5] (po) and in series [9] was >16 days each time. Besides, the “Mean weight change (grams ± SEM) Day 9” value in [5] (po) is given as 0.01 + 0.27** grams. Further, in series [18] (10 mg/kg), the “AUC(0-inf)” value is given as 219 ng·h. In [18] (10 mg/kg), this compound yielded a Cmax of 123 ng/mL. For the same compound, the Tmax in series [18] (10 mg/kg) was 30 min. Besides, the Survival rate in [22] (21 days) is 100%; in series [22] (hamster, in vivo, ip, dihydrochloride) it was 100% and 80%. Also, the weight entry in series [22] (hamster, in vivo, ip) was “weight gain over placebo and ribavirin”.
In the case of `CC(C)[C@H](N)C(=O)OC[C@H]1N[C@@H](c2c[nH]c3c(N)ncnc23)[C@H](O)[C@@H]1O` [compound 30f, (S)-((2R,3R,4S,5S)-5-(4-amino-5H-pyrrolo[3,2-d]pyrimidin-7-yl)-3,4-dihydroxypyrrolidin-2-yl)methyl 2-amino-3-methylbutanoate Hydrochloride], in [18] (10 mg/kg), the “AUC(0-inf)” value is listed as 1076 ng·h, the Cmax is 527 ng/mL, the Tmax is 30 min and the “bioavailability relative to compound 12i” value was “approximately four-fold”. Also, in series [18], the “hydrolysis by plasma esterases to compound 12i” value was “rapidly hydrolyze”.
